Earlier results in US20240139108A1, “ORAL PHARMACEUTICAL COMPOSITION OF ARSENIC TRIOXIDE” (INTAS PHARMACEUTICALS LTD., priority 2021, published 2024).

Key:
[1] = orally administered versus same amount administered intravenously

**Q.** Which solubility in water does the source give for Diarsenic trioxide here?
**A.** low solubility in water

**Q.** What about the peak plasma concentration [1] of the same substance?
**A.** lower peak plasma concentration

**Q.** And the “prolongation of the QT interval and ventricular tachycardia” value [1]?
**A.** less prolongation of the QT interval and ventricular tachycardia
